In ChEMBL document CHEMBL3044945, “Synthesis of 1,3,5-trisubstituted pyrazoline nucleus containing compounds and screening for antimicrobial activity” (2012):

Experiments:
Assay type in all cases: functional
Pseudomonas fluorescens [1] = assay: Antibacterial activity against Pseudomonas fluorescens MTCC 2421 at 750 ug/ml after 48 hr by cup-plate method; conditions: MTCC 2421, 48 h, read-out: DIZ
Pseudomonas fluorescens [2] = assay: Antibacterial activity against Pseudomonas fluorescens MTCC 2421 at 500 ug/ml after 48 hr by cup-plate method; conditions: MTCC 2421, 48 h, read-out: DIZ
Pseudomonas fluorescens [3] = assay: Antibacterial activity against Pseudomonas fluorescens MTCC 2421 at 250 ug/ml after 48 hr by cup-plate method; conditions: MTCC 2421, 48 h, read-out: DIZ
Pseudomonas fluorescens [4] = assay: Antibacterial activity against Pseudomonas fluorescens MTCC 2421 at 100 ug/ml after 48 hr by cup-plate method; conditions: MTCC 2421, 48 h, read-out: DIZ
Escherichia coli [5] = assay: Antibacterial activity against Escherichia coli MTCC 1573 at 1250 ug/ml after 48 hr by cup-plate method; conditions: MTCC 1573, 48 h, read-out: DIZ
Escherichia coli [6] = assay: Antibacterial activity against Escherichia coli MTCC 1573 at 1000 ug/ml after 48 hr by cup-plate method; conditions: MTCC 1573, 48 h, read-out: DIZ
Escherichia coli [7] = assay: Antibacterial activity against Escherichia coli MTCC 1573 at 750 ug/ml after 48 hr by cup-plate method; conditions: MTCC 1573, 48 h, read-out: DIZ
Micrococcus luteus [8] = assay: Antibacterial activity against Micrococcus luteus MTCC 1538 at 1000 ug/ml after 48 hr by cup-plate method; conditions: MTCC 1538, 48 h, read-out: DIZ
Micrococcus luteus [9] = assay: Antibacterial activity against Micrococcus luteus MTCC 1538 at 750 ug/ml after 48 hr by cup-plate method; conditions: MTCC 1538, 48 h, read-out: DIZ
Escherichia coli [10] = assay: Antibacterial activity against Escherichia coli MTCC 1573 at 500 ug/ml after 48 hr by cup-plate method; conditions: MTCC 1573, 48 h, read-out: DIZ
Escherichia coli [11] = assay: Antibacterial activity against Escherichia coli MTCC 1573 at 100 ug/ml after 48 hr by cup-plate method; conditions: MTCC 1573, 48 h, read-out: DIZ
Escherichia coli [12] = assay: Antibacterial activity against Escherichia coli MTCC 1573 at 250 ug/ml after 48 hr by cup-plate method; conditions: MTCC 1573, 48 h, read-out: DIZ
Micrococcus luteus [13] = assay: Antibacterial activity against Micrococcus luteus MTCC 1538 at 1250 ug/ml after 48 hr by cup-plate method; conditions: MTCC 1538, 48 h, read-out: DIZ
Bacillus pumilus [14] = assay: Antibacterial activity against Bacillus pumilus MTCC 1456 at 1250 ug/ml after 48 hr by cup-plate method; conditions: MTCC 1456, 48 h, read-out: DIZ
Bacillus pumilus [15] = assay: Antibacterial activity against Bacillus pumilus MTCC 1456 at 1000 ug/ml after 48 hr by cup-plate method; conditions: MTCC 1456, 48 h, read-out: DIZ
Bacillus pumilus [16] = assay: Antibacterial activity against Bacillus pumilus MTCC 1456 at 750 ug/ml after 48 hr by cup-plate method; conditions: MTCC 1456, 48 h, read-out: DIZ
Bacillus pumilus [17] = assay: Antibacterial activity against Bacillus pumilus MTCC 1456 at 500 ug/ml after 48 hr by cup-plate method; conditions: MTCC 1456, 48 h, read-out: DIZ
Bacillus pumilus [18] = assay: Antibacterial activity against Bacillus pumilus MTCC 1456 at 250 ug/ml after 48 hr by cup-plate method; conditions: MTCC 1456, 48 h, read-out: DIZ
Staphylococcus aureus [19] = assay: Antibacterial activity against Staphylococcus aureus MTCC 1430 at 1250 ug/ml after 48 hr by cup-plate method; conditions: MTCC 1430, 48 h, read-out: DIZ
Staphylococcus aureus [20] = assay: Antibacterial activity against Staphylococcus aureus MTCC 1430 at 1000 ug/ml after 48 hr by cup-plate method; conditions: MTCC 1430, 48 h, read-out: DIZ
Staphylococcus aureus [21] = assay: Antibacterial activity against Staphylococcus aureus MTCC 1430 at 750 ug/ml after 48 hr by cup-plate method; conditions: MTCC 1430, 48 h, read-out: DIZ
Staphylococcus aureus [22] = assay: Antibacterial activity against Staphylococcus aureus MTCC 1430 at 500 ug/ml after 48 hr by cup-plate method; conditions: MTCC 1430, 48 h, read-out: DIZ
Staphylococcus aureus [23] = assay: Antibacterial activity against Staphylococcus aureus MTCC 1430 at 250 ug/ml after 48 hr by cup-plate method; conditions: MTCC 1430, 48 h, read-out: DIZ
Pseudomonas aeruginosa [24] = assay: Antibacterial activity against Pseudomonas aeruginosa MTCC 424 at 1250 ug/ml after 48 hr by cup-plate method; conditions: MTCC 424, 48 h, read-out: DIZ
Pseudomonas aeruginosa [25] = assay: Antibacterial activity against Pseudomonas aeruginosa MTCC 424 at 1000 ug/ml after 48 hr by cup-plate method; conditions: MTCC 424, 48 h, read-out: DIZ
Pseudomonas aeruginosa [26] = assay: Antibacterial activity against Pseudomonas aeruginosa MTCC 424 at 750 ug/ml after 48 hr by cup-plate method; conditions: MTCC 424, 48 h, read-out: DIZ
Pseudomonas aeruginosa [27] = assay: Antibacterial activity against Pseudomonas aeruginosa MTCC 424 at 500 ug/ml after 48 hr by cup-plate method; conditions: MTCC 424, 48 h, read-out: DIZ
Pseudomonas aeruginosa [28] = assay: Antibacterial activity against Pseudomonas aeruginosa MTCC 424 at 250 ug/ml after 48 hr by cup-plate method; conditions: MTCC 424, 48 h, read-out: DIZ
Pseudomonas aeruginosa [29] = assay: Antibacterial activity against Pseudomonas aeruginosa MTCC 424 at 100 ug/ml after 48 hr by cup-plate method; conditions: MTCC 424, 48 h, read-out: DIZ

SMILES: NC(=O)N1N=C(c2cccc3ccccc23)CC1c1ccc([N+](=O)[O-])cc1 (centres undefined)
- zone of inhibition at 750 µg/mL (Pseudomonas fluorescens [1]): 11 mm
- zone of inhibition at 500 µg/mL (Pseudomonas fluorescens [2]): 10 mm
- zone of inhibition at 250 µg/mL (Pseudomonas fluorescens [3]): 9 mm
- zone of inhibition at 100 µg/mL (Pseudomonas fluorescens [4]): 8 mm
- zone of inhibition at 1250 µg/mL (Escherichia coli [5]): 15 mm
- zone of inhibition at 1000 µg/mL (Escherichia coli [6]): 13 mm
- zone of inhibition at 750 µg/mL (Escherichia coli [7]): 12 mm
- zone of inhibition at 1000 µg/mL (Micrococcus luteus [8]): 10 mm
- zone of inhibition at 750 µg/mL (Micrococcus luteus [9]): 9 mm
- zone of inhibition at 500 µg/mL (Escherichia coli [10]): 11 mm
- zone of inhibition at 100 µg/mL (Escherichia coli [11]): 9 mm
- zone of inhibition at 250 µg/mL (Escherichia coli [12]): 10 mm
- zone of inhibition at 1250 µg/mL (Micrococcus luteus [13]): 11 mm
- zone of inhibition at 1250 µg/mL (Bacillus pumilus [14]): 12 mm
- zone of inhibition at 1000 µg/mL (Bacillus pumilus [15]): 11 mm
- zone of inhibition at 750 µg/mL (Bacillus pumilus [16]): 10 mm
- zone of inhibition at 500 µg/mL (Bacillus pumilus [17]): 9 mm
- zone of inhibition at 250 µg/mL (Bacillus pumilus [18]): 8 mm
- zone of inhibition at 1250 µg/mL (Staphylococcus aureus [19]): 14 mm
- zone of inhibition at 1000 µg/mL (Staphylococcus aureus [20]): 12 mm
- zone of inhibition at 750 µg/mL (Staphylococcus aureus [21]): 11 mm
- zone of inhibition at 500 µg/mL (Staphylococcus aureus [22]): 10 mm
- zone of inhibition at 250 µg/mL (Staphylococcus aureus [23]): 9 mm
- zone of inhibition at 1250 µg/mL (Pseudomonas aeruginosa [24]): 15 mm
- zone of inhibition at 1000 µg/mL (Pseudomonas aeruginosa [25]): 13 mm
- zone of inhibition at 750 µg/mL (Pseudomonas aeruginosa [26]): 12 mm
- zone of inhibition at 500 µg/mL (Pseudomonas aeruginosa [27]): 11 mm
- zone of inhibition at 250 µg/mL (Pseudomonas aeruginosa [28]): 10 mm
- zone of inhibition at 100 µg/mL (Pseudomonas aeruginosa [29]): 9 mm
